Assay results reported in patent US12528786B2, “Plasma kallikrein inhibitors” (Merck Sharp & Dohme LLC, priority 2020, dated 2026).

Target: T1, Human plasma kallikrein (Homo sapiens, UniProt P03952)
T1 construct: yields a heavy chain (371 amino acids) and a light chain (248 amino acids); purchased Enzyme Research Laboratories
Experiment: Kallikrein Assay (fluorogenic substrate hydrolysis, AFC release)
Assay type: biochemical
Settings: purified Human plasma kallikrein 0.5 nM; substrate Acetyl-K—P—R-AFC 100 mM; 50 mM HEPES pH 7.4
How it was run: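 Enzyme–inhibitor equilibrated before substrate dilution to ≤0.2 Km; human plasma kallikrein at 0.5 nM final, Acetyl-K-P-R-AFC substrate, HEPES pH 7.4 buffer with NaCl, CaCl2, PEG 8000, at room temperature or 37° C. Linear-phase fluorescence rate gives percent inhibition, four-parameter logistic IC50, then Cheng-Prusoff Ki.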

T1 sequence (P03952 391-638 limits assumed): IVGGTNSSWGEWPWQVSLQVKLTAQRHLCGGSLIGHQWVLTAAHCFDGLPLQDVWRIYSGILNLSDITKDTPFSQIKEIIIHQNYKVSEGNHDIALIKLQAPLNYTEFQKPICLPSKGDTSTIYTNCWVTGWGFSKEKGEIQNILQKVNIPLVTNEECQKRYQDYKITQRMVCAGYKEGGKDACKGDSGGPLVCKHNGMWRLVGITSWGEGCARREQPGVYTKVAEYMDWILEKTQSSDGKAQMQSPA
T1 sequence (P03952 20-390 partner limits assumed): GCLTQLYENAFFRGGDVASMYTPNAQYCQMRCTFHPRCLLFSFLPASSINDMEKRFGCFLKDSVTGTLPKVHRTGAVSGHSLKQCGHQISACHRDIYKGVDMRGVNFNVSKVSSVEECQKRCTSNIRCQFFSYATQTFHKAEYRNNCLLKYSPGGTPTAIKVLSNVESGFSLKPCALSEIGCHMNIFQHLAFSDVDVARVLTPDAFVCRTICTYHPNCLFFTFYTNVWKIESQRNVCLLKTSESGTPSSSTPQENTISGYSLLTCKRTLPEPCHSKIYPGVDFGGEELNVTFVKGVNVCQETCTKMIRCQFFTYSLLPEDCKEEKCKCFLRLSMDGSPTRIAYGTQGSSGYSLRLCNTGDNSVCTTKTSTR

SMILES: Cc1ccc(C#N)c([C@H]2C[C@@H](NC(=O)c3cn(C(C)c4nnc(N5C[C@H]6C[C@H]6C5=O)c(C)c4C)nn3)C2)n1 (single isomer, unassigned) [Example 127, N-((cis)-3-(3-cyano-6-methylpyridin-2-yl)cyclobutyl)-1-((R or S)-1-(4,5-dimethyl-6-((1R,5S)-2-oxo-3-azabicyclo[3.1.0]hexan-3-yl)pyridazin-3-yl)ethyl)-1H-1,2,3-triazole-4-carboxamide]
- IC50: 702 nM

SMILES: Cc1ccc(C#N)c([C@H]2C[C@@H](NC(=O)c3cn(C(C)c4nnc(N5C[C@H]6C[C@H]6C5=O)c(C)c4C)nn3)C2)n1 (single isomer, unassigned) [Example 128, N-((cis)-3-(3-cyano-6-methylpyridin-2-yl)cyclobutyl)-1-((S or R)-1-(4,5-dimethyl-6-((1R,5S)-2-oxo-3-azabicyclo[3.1.0]hexan-3-yl)pyridazin-3-yl)ethyl)-1H-1,2,3-triazole-4-carboxamide]
- IC50: 2.3 nM

SMILES: Cc1c(C(C)n2cc(C(=O)NC3CC(c4cccc(Cl)c4)C3O)nn2)nnc(N2C[C@H]3C[C@H]3C2=O)c1C (single isomer, unassigned) [Example 129, N-((1R,2R,3R or 1S,2S,3S))-3-(3-chlorophenyl)-2-hydroxycyclobutyl)-1-((R or S)-1-(4,5-dimethyl-6-((1R,5S)-2-oxo-3-azabicyclo[3.1.0]hexan-3-yl)pyridazin-3-yl)ethyl)-1H-1,2,3-triazole-4-carboxamide]
- IC50: 839 nM

SMILES: Cc1c(C(C)n2cc(C(=O)NC3CC(c4cccc(Cl)c4)C3O)nn2)nnc(N2C[C@H]3C[C@H]3C2=O)c1C (single isomer, unassigned) [Example 130, N-((1S,2S,3S or 1R,2R,3R))-3-(3-chlorophenyl)-2-hydroxycyclobutyl)-1-((R or S)-1-(4,5-dimethyl-6-((1R,5S)-2-oxo-3-azabicyclo[3.1.0]hexan-3-yl)pyridazin-3-yl)ethyl)-1H-1,2,3-triazole-4-carboxamide]
- IC50: 8.5 nM

SMILES: Cc1c(C(C)n2cc(C(=O)NC3CC(c4cccc(Cl)c4)C3O)nn2)nnc(N2C[C@H]3C[C@H]3C2=O)c1C (single isomer, unassigned) [Example 131, N-((1R,2R,3R or 1S,2S,3S))-3-(3-chlorophenyl)-2-hydroxycyclobutyl)-1-((S or R)-1-(4,5-dimethyl-6-((1R,5S)-2-oxo-3-azabicyclo[3.1.0]hexan-3-yl)pyridazin-3-yl)ethyl)-1H-1,2,3-triazole-4-carboxamide]
- IC50: 281 nM

SMILES: Cc1c(C(C)n2cc(C(=O)NC3CC(c4cccc(Cl)c4)C3O)nn2)nnc(N2C[C@H]3C[C@H]3C2=O)c1C (single isomer, unassigned) [Example 132, N-((1S,2S,3S or 1R,2R,3R))-3-(3-chlorophenyl)-2-hydroxycyclobutyl)-1-((S or R)-1-(4,5-dimethyl-6-((1R,5S)-2-oxo-3-azabicyclo[3.1.0]hexan-3-yl)pyridazin-3-yl)ethyl)-1H-1,2,3-triazole-4-carboxamide]
- IC50: 279 nM

SMILES: Cc1ccc(C#N)c([C@H]2C[C@@H](NC(=O)c3cn(C(C)c4cnc(N5C[C@H]6C[C@H]6C5=O)c(C)c4)nn3)C2)c1 (single isomer, unassigned) [Example 133, N-((cis)-3-(2-cyano-5-methylphenyl)cyclobutyl)-1-((R or S)-1-(5-methyl-6-((1R,5S)-2-oxo-3-azabicyclo[3.1.0]hexan-3-yl)pyridin-3-yl)ethyl)-1H-1,2,3-triazole-4-carboxamide]
- IC50: 2.5 nM

SMILES: Cc1ccc(C#N)c([C@H]2C[C@@H](NC(=O)c3cn(C(C)c4cnc(N5C[C@H]6C[C@H]6C5=O)c(C)c4)nn3)C2)c1 (single isomer, unassigned) [Example 134, N-((cis)-3-(2-cyano-5-methylphenyl)cyclobutyl)-1-((S or R)-1-(5-methyl-6-((1R,5S)-2-oxo-3-azabicyclo[3.1.0]hexan-3-yl)pyridin-3-yl)ethyl)-1H-1,2,3-triazole-4-carboxamide]
- IC50: 5.4 nM

SMILES: Cc1ccc(C#N)c([C@H]2C[C@@H](NC(=O)c3cn(C(C)c4cnc(N5C[C@H]6C[C@H]6C5=O)c(F)c4C)nn3)C2)n1 (single isomer, unassigned) [Example 135, N-((cis)-3-(3-cyano-6-methylpyridin-2-yl)cyclobutyl)-1-((R or S)-1-(5-fluoro-4-methyl-6-((1R,5S)-2-oxo-3-azabicyclo[3.1.0]hexan-3-yl)pyridin-3-yl)ethyl)-1H-1,2,3-triazole-4-carboxamide]
- IC50: 80 nM

SMILES: Cc1ccc(C#N)c([C@H]2C[C@@H](NC(=O)c3cn(C(C)c4cnc(N5C[C@H]6C[C@H]6C5=O)c(F)c4C)nn3)C2)n1 (single isomer, unassigned) [Example 136, N-((cis)-3-(3-cyano-6-methylpyridin-2-yl)cyclobutyl)-1-((S or R)-1-(5-fluoro-4-methyl-6-((1R,5S)-2-oxo-3-azabicyclo[3.1.0]hexan-3-yl)pyridin-3-yl)ethyl)-1H-1,2,3-triazole-4-carboxamide]
- IC50: 1.4 nM

SMILES: C[C@H](c1cncc(N2C[C@H]3C[C@H]3C2=O)c1)n1cc(C(=O)N[C@H]2C[C@@H](c3cc(Cl)ccc3C#N)C2)nn1 (single isomer, unassigned) [Example 137]
- IC50: 1.6 nM

SMILES: C[C@@H](c1cncc(N2C[C@H]3C[C@H]3C2=O)c1)n1cc(C(=O)N[C@H]2C[C@@H](c3cc(Cl)ccc3C#N)C2)nn1 (single isomer, unassigned) [Example 138]
- IC50: 11.1 nM

SMILES: Cc1ncc(C(C)n2cc(C(=O)N[C@H]3C[C@@H](c4cc(Cl)ccc4C#N)C3)nn2)cc1N1C[C@H]2C[C@H]2C1=O (single isomer, unassigned) [Example 139, N-((cis)-3-(5-chloro-2-cyanophenyl)cyclobutyl)-1-((R or S)-1-(6-methyl-5-((1R,5S)-2-oxo-3-azabicyclo[3.1.0]hexan-3-yl)pyridin-3-yl)ethyl)-1H-1,2,3-triazole-4-carboxamide]
- IC50: 1.4 nM

SMILES: Cc1ncc(C(C)n2cc(C(=O)N[C@H]3C[C@@H](c4cc(Cl)ccc4C#N)C3)nn2)cc1N1C[C@H]2C[C@H]2C1=O (single isomer, unassigned) [Example 140, N-((cis)-3-(5-chloro-2-cyanophenyl)cyclobutyl)-1-((S or R)-1-(6-methyl-5-((1R,5S)-2-oxo-3-azabicyclo[3.1.0]hexan-3-yl)pyridin-3-yl)ethyl)-1H-1,2,3-triazole-4-carboxamide]
- IC50: 11.3 nM

SMILES: [2H]C1(NC(=O)c2cn([C@@H](C)c3cnc(N4C[C@H]5C[C@H]5C4=O)cc3C)nn2)CC(C)(c2cc(Cl)ccc2C#N)C1 (single isomer, unassigned) [Example 145, N-((cis or trans)-3-(5-chloro-2-cyanophenyl)-3-methylcyclobutyl-1-d)-1-((S)-1-(4-methyl-6-((1R,5S)-2-oxo-3-azabicyclo[3.1.0]hexan-3-yl)pyridin-3-yl)ethyl)-1H-1,2,3-triazole-4-carboxamide]
- IC50: 126 nM

SMILES: [2H]C1(NC(=O)c2cn([C@@H](C)c3cnc(N4C[C@H]5C[C@H]5C4=O)cc3C)nn2)CC(C)(c2cc(Cl)ccc2C#N)C1 (single isomer, unassigned) [Example 146, N-((trans or cis)-3-(5-chloro-2-cyanophenyl)-3-methylcyclobutyl-1-d)-1-((S)-1-(4-methyl-6-((1R,5S)-2-oxo-3-azabicyclo[3.1.0]hexan-3-yl)pyridin-3-yl)ethyl)-1H-1,2,3-triazole-4-carboxamide]
- IC50: 0.7 nM
